The results in this text go back to PMC12040169 (PLOS Biology, 2025).

The data set in a line: in vitro. Particulars: human, hela cells, % viability.

As a reminder, the viability is a read-out of living cells in per cent, often relative to untreated cells. With `C=CCNC(=O)C1CC2CCC1(C)C[C@@]21NC(=O)c2ccccc2N1` (stereo partly drawn) [CBK284442], the viability at 28.5 h, 10 µM is 86.6%.
Take `Cn1cccc1CN1C[C@H]2CC[C@]3(NC(=O)c4ccccc4N3)[C@H]2C1` [CBK284443]: the viability at 28.5 h, 10 µM stood at 97.7%.
`CC(=O)N1CC2(CCN(C(=O)C(C)(C)C)CC2)Nc2ccccc21` [CBK284448]: the viability at 28.5 h, 10 µM was 102%.
For the molecule `O=C1N[C@@]2(CC3CCC2CC3C(=O)N2CCCC2)Nc2ccccc21` (stereo partly drawn) [CBK284449], the viability at 28.5 h, 10 µM amounted to 91.8%.
As to `CC(C)C(=O)N1C2CCC1Cn1c(nc3ccccc3c1=O)C2` (stereo not drawn) [CBK284450], the viability at 28.5 h, 10 µM turned out to be 85.3%.
Turning to `O=C(c1ccco1)N1C2CCC1Cn1c(nc3ccccc3c1=O)C2` (stereo not drawn) [CBK284452], the viability at 28.5 h, 10 µM was 89.1%.
For `O=C(C1CCC1)N1C2CCC1Cn1c(nc3ccccc3c1=O)C2` (stereo not drawn) [CBK284453], the viability at 28.5 h, 10 µM was determined as 91.5%.
On to `CN1CCC2(CCC1=O)CC(NC(=O)C1CC1)c1ccccc1O2` (stereo not drawn) [CBK284455], for which the viability at 28.5 h, 10 µM was 93.3%.
Consider `O=C(CCn1cccn1)N1CCC(c2cc3ncccc3[nH]2)CC1` [CBK284457], for which the viability at 28.5 h, 10 µM is 83.6%.
As for `O=C(CCc1ccncc1)N1CCC(c2cc3ncccc3[nH]2)CC1` [CBK284460], the viability at 28.5 h, 10 µM was determined as 84.3%.
The figure for `Cc1cc(-c2ccc(=O)n(CCNC(=O)c3cccs3)n2)c(C)o1` [CBK284461] is 92.3%; for `O=C1CCN(Cc2ccccc2)CCN1Cc1cccc(F)c1` [CBK284466] it is 96.4%.
For `Cc1ncsc1C(=O)N1CCCC(n2cnc3cc(F)ccc32)C1` (stereo not drawn) [CBK284470] the value was 91.2%; for `Cc1ccc2c(c1)oc(=O)n2CCNC(=O)Cc1c[nH]c2ccccc12` [CBK284473], 101%; for `O=C(c1cccnc1)N1CCCC(n2cnc3cc(F)ccc32)C1` (stereo not drawn) [CBK284474], 85.6%.
On to `O=C(c1ccco1)N1CCCC(n2cnc3cc(F)ccc32)C1` (stereo not drawn) [CBK284475], for which the viability at 28.5 h, 10 µM came out at 94.8%.
As for `O=C(c1ccccn1)N1CCCC(n2cnc3cc(F)ccc32)C1` (stereo not drawn) [CBK284476], the viability at 28.5 h, 10 µM turned out to be 92.7%.
For the molecule `O=C(c1cscn1)N1CCCC(n2cnc3cc(F)ccc32)C1` (stereo not drawn) [CBK284477], the viability at 28.5 h, 10 µM stood at 90.8%.
For the molecule `Clc1ccc2c(c1)NC(c1ccco1)N1CCN=C21` (stereo not drawn) [CBK284479], the viability at 28.5 h, 10 µM was 84.8%.
In the case of `Cc1cc(-c2cnoc2C2CCCN(C(=O)c3cccs3)C2)on1` (stereo not drawn) [CBK284480], the viability at 28.5 h, 10 µM worked out at 102%.
On to `CC1CCc2nn(CCNC(=O)c3ccco3)c(=O)cc2C1` (stereo not drawn) [CBK284481], for which the viability at 28.5 h, 10 µM was 95.2%.
In the case of `CC1CCc2nn(CCNC(=O)Cc3ccccc3F)c(=O)cc2C1` (stereo not drawn) [CBK284482], the viability at 28.5 h, 10 µM amounted to 97.2%.
Take `CC1CCc2nn(CCNC(=O)c3cccs3)c(=O)cc2C1` (stereo not drawn) [CBK284483]: the viability at 28.5 h, 10 µM stood at 97.4%.
In the case of `CC1CCc2nn(CCNC(=O)C3CCCC3)c(=O)cc2C1` (stereo not drawn) [CBK284484], the viability at 28.5 h, 10 µM was determined as 91.1%.
`c1csc(C2Nc3ccccc3C3=NCCCN32)c1` (stereo not drawn) [CBK284489]: the viability at 28.5 h, 10 µM was found to be 99.2%.
The figure for `O=C(c1ccco1)N1CCC(c2ccnc3nc4ccccc4n23)CC1` [CBK284490] is 87.2%.
As to `Cc1ncc2c(n1)[C@@H]1CN(C(=O)Cc3cccs3)C[C@@H]1CC2` [CBK284491], the viability at 28.5 h, 10 µM came to 89.3%.
The figure for `Cc1cc(-c2sc(N)nc2-c2cccs2)on1` [CBK284492] is 87.9%.
In the case of `O=C(Nc1nc(-c2ccco2)c(-c2ccncc2)s1)C1CC1` [CBK284494], the viability at 28.5 h, 10 µM was 87.4%.
For `CCC(=O)Nc1nc(-c2ccco2)c(-c2ccncc2)s1` [CBK284495] the value was 101%; for `O=C(C1CCC1)N1CCC(c2onc3c2CCCCC3)CC1` [CBK284496], 104%.
For `CCS(=O)(=O)N1CCC(c2onc3c2CCCCC3)CC1` [CBK284497] the value was 93.5%.
For `c1cncc(-c2ncc(-c3ccco3)c(-c3ccco3)n2)c1` [CBK284503], the viability at 28.5 h, 10 µM is 93.5%.
Take `O=C(C1CCC1)N1CCC2(CC1)Nc1cccnc1-n1cccc12` [CBK284505]: the viability at 28.5 h, 10 µM is 92.5%.
As to `CC(C)(C)C(=O)N1CCC2(CC1)Nc1cccnc1-n1cccc12` [CBK284507], the viability at 28.5 h, 10 µM was 95.6%.
As for `Cc1cc(C(=O)N2CC3CCCC(O)(c4cccn4C)C3C2)c(C)[nH]1` (stereo not drawn) [CBK284514], the viability at 28.5 h, 10 µM is 93.9%.
As to `N=C1OC2CSCC2N1C(=O)Cc1ccccc1Cl` (stereo not drawn) [CBK284516], the viability at 28.5 h, 10 µM was found to be 106%.
Regarding `N=C1OC2CSCC2N1C(=O)Cc1c(F)cccc1Cl` (stereo not drawn) [CBK284517], the viability at 28.5 h, 10 µM is 84.9%.
Take `Cc1cc(-c2ccc(=O)n(CCNC(=O)C3CCC3)n2)c(C)o1` [CBK284520]: the viability at 28.5 h, 10 µM turned out to be 110%.
Consider `Cc1cc(-c2ccc(=O)n(CCNC(=O)C3CC3)n2)c(C)o1` [CBK284521], for which the viability at 28.5 h, 10 µM is 93.2%.
For `CC(C)NC(=O)c1ccc(-n2cccn2)c(C#Cc2cccnc2)c1` [CBK284523], the viability at 28.5 h, 10 µM turned out to be 94.3%.
For `COC(=O)c1ccc(-n2cccn2)c(C#Cc2cccnc2)c1` [CBK284525], the viability at 28.5 h, 10 µM came to 95.2%.
Take `C[C@@H](Cn1nc2c(cc1=O)CCCC2)NC(=O)Cc1ccc(F)cc1` [CBK284526]: the viability at 28.5 h, 10 µM stood at 100%.
For `C[C@@H](Cn1nc2c(cc1=O)CCCC2)NC(=O)Cc1cccc(F)c1` [CBK284527], the viability at 28.5 h, 10 µM turned out to be 95.9%.
With `O=C(c1ccc(F)cc1)N1CCC[C@@H]1Cn1c(=O)oc2ccccc21` [CBK284529], the viability at 28.5 h, 10 µM was 89.4%.
For the molecule `O=C(Cc1ccsc1)N1CCC[C@@H]1Cn1c(=O)oc2ccccc21` [CBK284530], the viability at 28.5 h, 10 µM worked out at 91.2%.
As to `CC[C@H](Cn1c(=O)oc2ccccc21)NC(=O)Cc1cccs1` [CBK284537], the viability at 28.5 h, 10 µM amounted to 84.7%.
Turning to `CC[C@H](Cn1c(=O)oc2ccccc21)NC(=O)C1CCCC1` [CBK284542], the viability at 28.5 h, 10 µM stood at 97.2%.
`CC[C@H](Cn1c(=O)oc2ccccc21)NC(=O)Cc1ccsc1` [CBK284543]: the viability at 28.5 h, 10 µM turned out to be 89.2%.
Take `C[C@H](Cn1nc2c(cc1=O)CCCCC2)NC(=O)C1CCCC1` [CBK284546]: the viability at 28.5 h, 10 µM is 83.2%.
As for `C[C@@H](Cn1nc2c(cc1=O)CCCC2)NC(=O)c1ccco1` [CBK284559], the viability at 28.5 h, 10 µM came to 92.2%.
Take `C[C@@H](Cn1nc2c(cc1=O)CCCC2)NC(=O)c1ccccc1F` [CBK284560]: the viability at 28.5 h, 10 µM came to 92.5%.
Take `C[C@@H](Cn1nc2c(cc1=O)CCCC2)NC(=O)c1cccc(F)c1` [CBK284561]: the viability at 28.5 h, 10 µM was found to be 87.5%.
On to `C[C@@H](Cn1nc2c(cc1=O)CCCC2)NC(=O)c1ccc(F)cc1` [CBK284562], for which the viability at 28.5 h, 10 µM worked out at 91.3%.
As to `Cc1cccc(C(=O)N[C@@H](C)Cn2nc3c(cc2=O)CCCC3)c1` [CBK284563], the viability at 28.5 h, 10 µM stood at 89.1%.
For the molecule `Cc1nc2nc(-c3ccc(F)cc3F)cn2nc1C` [CBK284564], the viability at 28.5 h, 10 µM stood at 90.3%.
With `CCN1C(=O)c2ccccc2C(=O)[C@@]2(C)CN(C(=O)C3CC3)C[C@@H]12` [CBK284567], the viability at 28.5 h, 10 µM is 81.5%.
For `Cc1cc(C)n(CCCC(=O)N2C[C@H]3CCc4c[nH]nc4[C@H]3C2)n1` [CBK284573] the value was 101%; for `CCOC(=O)C1(Cc2cc(-c3cccc(F)c3)no2)CCCNC1` (stereo not drawn) [CBK284578], 87.3%; for `CCOC(=O)C1(Cc2cc(-c3ccccc3)no2)CCCNC1` (stereo not drawn) [CBK284583], 98.9%.
In the case of `CC(=O)N1C[C@@H](c2ccsc2)[C@@H]2CN(Cc3ccccc3)CC[C@@H]21` [CBK284585], the viability at 28.5 h, 10 µM is 109%.
As to `CC(=O)N1C[C@H](c2ccsc2)[C@H]2CN(Cc3cccs3)CC[C@H]21` [CBK284586], the viability at 28.5 h, 10 µM was 109%.
As for `CN1C[C@@H](C(=O)N2CCCCCC2)[C@@]2(CCc3ccccc3C2=O)C1` [CBK284590], the viability at 28.5 h, 10 µM was 87%.
The figure for `CC(=O)NCCn1cc2c(n1)[C@H]1CN(C(=O)CC(C)(C)C)C[C@H]1CC2` [CBK284592] is 93.8%; for `Cc1csc2c(C3CCCN(C(=O)c4cnn(C)c4)C3)nc(C)n12` (stereo not drawn) [CBK284595] it is 98.5%.
For `COC1CCCC(C(=O)N2CCC(c3onc4c3CCCC4)CC2)C1` (stereo not drawn) [CBK284598] the value was 94.3%.
With `O=C(Cc1ccccc1F)N1CCCC(c2cnccn2)C1` (stereo not drawn) [CBK284601], the viability at 28.5 h, 10 µM turned out to be 96.8%.
In the case of `COCC(=O)N1C2CCC(C2)[C@@H]1COc1ccc(F)cc1` (stereo partly drawn) [CBK284603], the viability at 28.5 h, 10 µM is 109%.
In the case of `COCCC(=O)N1C2CCC(C2)[C@@H]1COc1ccc(F)cc1` (stereo partly drawn) [CBK284604], the viability at 28.5 h, 10 µM was determined as 96%.
`O=C(Cc1cccs1)N1CCC(c2nnc3n2CCCCC3)CC1` [CBK284606]: the viability at 28.5 h, 10 µM amounted to 83.1%.
Consider `O=C(c1ccco1)N1CCC(c2nnc3n2CCCCC3)CC1` [CBK284607], for which the viability at 28.5 h, 10 µM worked out at 94.3%.
Regarding `Cc1ccc(C2(O)CC3CCC(C2)N3C(=O)c2ccncc2)cc1` (stereo not drawn) [CBK284609], the viability at 28.5 h, 10 µM is 100%.
Consider `O=C(C1CCCCC1)N1CCC(c2nnc3n2CCCCC3)CC1` [CBK284613], for which the viability at 28.5 h, 10 µM is 92.7%.
`CCC(CC)C(=O)N1CCC(c2nnc3n2CCCCC3)CC1` [CBK284614]: the viability at 28.5 h, 10 µM is 86.6%.
The figure for `O=C(C1CCCCC1)N1CC(n2nc(-c3ccccc3)ccc2=O)C1` [CBK284616] is 92.8%; for `O=C(C1CCCC1)N1CC(n2nc(-c3ccccc3)ccc2=O)C1` [CBK284617] it is 93.9%.
The figure for `CCC(C(=O)N1CCc2nc(C)[nH]c(=O)c2C1)c1ccccc1` (stereo not drawn) [CBK284618] is 91.6%; for `Cc1cccc(CN2CCC3(CCc4ccccc4C(=O)N3)C2)n1` (stereo not drawn) [CBK284619] it is 106%.
For the molecule `O=C1NC2(CCc3ccccc31)CCN(Cc1cccnc1)C2` (stereo not drawn) [CBK284620], the viability at 28.5 h, 10 µM amounted to 96.5%.
With `Cc1cc(C)c2c(NCc3ccc(C)o3)n[nH]c2n1` [CBK284621], the viability at 28.5 h, 10 µM came out at 94.9%.
As for `CC(C)(C)C(=O)N1CC(n2nc(-c3ccccc3)ccc2=O)C1` [CBK284623], the viability at 28.5 h, 10 µM is 92.1%.
